Source: patent publication US10064975B2, “Method for coating skin abrasion, laceration, burn or oedema after surgery” (Lilac Laboratory Co., Ltd., priority 2014, dated 2018)

Test: pH
Type: physicochemical
Details: less affected by the concentration
From the text: According to the present invention, an active ingredient, aluminium chloride hydrate, is preferably used at the practical range of 0.005% to 20% by weight in view of the strong acidity thereof and tissue irritating nature. The pH of aluminium chloride is less affected by the concentration and is as low as around pH 1.9. Aluminium chloride has strong tissue irritating nature, and thus is more preferably adjusted to pH of 2.8 to 6.0 in practical use.
In the present Example, in order to reduce irritating nature at affected areas due to the acidity of aluminium chloride, 3.0% of the 10% sodium hydroxide solution was added to neutralise, the produced precipitate was removed by filtration and pH was adjusted to 3.9. […] Therefore, the 70% ethanol preparation was added as a fungicide.
In the present Example, in order to reduce irritating nature at affected areas due to the acidity of aluminium chloride, the solution was neutralised with sodium hydroxide and adjusted to pH 3.5, and the precipitate was removed by filtration.

[Cl][Al]([Cl])[Cl] [aluminium chloride]
pH of aluminium chloride: ~1.9
